The test system of series [1] is Carrageenan-induced Paw Edema in rats. Nature of the series: Carrageenan-induced paw edema test. Format: in vivo, Wistar-Imamichi rats. The conditions noted are these: Rattus norvegicus, oral, 3 hours after carrageenan, read-out: Inhibition Rate (%). As to the method:
The same test compounds were subjected to the test as those in the Randall-Selitto test of Experiment 3. Wistar-Imamichi rats (males, 6 week old, body weights: 110-120 g) were used in this test.
The method of Winter, et al. [Proc. Soc. Exp. Biol. Med. 111, 544-547, (1962)] was slightly modified to perform the test [Sankyo Annual Research Report 39, 77-111, (1989)]. The rats were fasted for 16 hours prior to use. Inflammatory edema was induced by the subcutaneous injection of 0.05 ml of a 1% carrageenan (Viscarin 402) solution into the right hind paw of the animal. The test compounds were administered orally 30 minutes before injection of carrageenan. The volume of the right hind foot was measured with a Plethysmometer (Trade mark) (Ugo-Basile Co.) just before administration of the test compound and 3 hours after injection of carrageenan to determine the edema intensity [(right foot volume after 3 hours/right foot volume before injection)-1].
(In general: In the carrageenan paw model, swelling and tenderness develop within hours.)

Series [2] relates to yeast-inflamed pain in rats. Put plainly: Analgesic effect on yeast-inflamed pain in rats (Randall-Selitto method). Format: in vivo, Wistar-Imamichi rats. The following applies: Rattus norvegicus, oral, pain threshold 0.5, 1 and 2 hours after administration, read-out: Efficacy Rate (No. of animals in which drug was effective/No. of animals used in test) (converted). As to the method: The compound was suspended in 0.5%tragacanth and administered orally at a volume of 5 ml/kg. The control group was administered with 0.5% tragacanth only as a vehicle.
Wistar-Imamichi rats (males, 5 week old, body weights: 80-100 g) were used in this test.
The test was conducted in accordance with the method of Winter and Flataker [J. Pharmacol. Exp. Ther. 150, 165-171, (1965)], which is a modification of the original method of Randall and Selitto [Arch. Int. Pharmacodyn. Ther. 111, 405-419, (1957)]. The rats were fasted for 16 hours prior to use. Inflammation was induced by subcutaneous injection of 0.1 ml of a suspension of 20% beer yeast (Sigma) into the right hind footpad of the animal. After 4.5 hours, increasing pressure was applied to the inflamed footpad at a constant speed using an Analgesy meter (Trade mark) (Ugo-Basile Co.).
First the average of pain threshold values at each time point (0.5, 1, and 2 hr) was calculated in a control group. If a pain threshold value exceeded 2 times the control average value at the same time point even once in the drug-treated groups, then the animal was considered to indicate efficacy. Efficacy rates of the drug were estimated by the evaluation method of Blake [J. Pharm. Pharm. 19, 367-373, (1967)].

Series [3] relates to gastric mucosa. Put plainly: Irritative effect on gastric mucosa. Format: in vivo, Wistar rats. The following applies: oral; dose producing 50% incidence of gastric ulcers, 3.5 hours after dosing. As to the method:
Experiments were performed according to the method described by Jahn and Adrian [Arzneim.-Forsch. 19, 36, (1969)]. Male Wistar rats weighing approximately 120 g were fasted for 16 hours before the experiment. The drugs were administered orally to rats as described in Experiment 3. Three and the half hours after dosing, the animals were killed under ether-anesthesia and the stomachs were placed into 1% of formalin. The stomach was opened by cutting along the greater curvature and the number and length of lesions were counted under a microscope (6.3×10). The ulcerogenicity in each animal was assessed according to Hitchens et. al. [Pharmacologist 9, 242, (1967)]. Incidence was determined as the rate of rats with 4 or more ulcers of more than 0.5 mm length, and UD50's (doses producing 50% incidence) were calculated from the incidence and the dose by probit (=probability unit) method.

With `Cc1ccc(-c2c(C)ccn2-c2ccc(S(N)(=O)=O)cc2)cc1` [Example 17, 3-Methyl-2-(4-methylphenyl)-1-(4-sulfamoylphenyl) pyrrole], the inhibition in vivo at 50 mg/kg in series [1] was determined as 67%.
For the molecule `Cc1ccc(-c2cc(C)cn2-c2ccc(S(N)(=O)=O)cc2)cc1` [Example 18, 4-Methyl-2-(4-methylphenyl)-1-(4-sulfamoylphenyl) pyrrole], in series [1], the inhibition in vivo at 50 mg/kg worked out at 53%. In series [2], the responders at 12.5 mg/kg is 100%.
For `NS(=O)(=O)c1ccc(-c2cccn2-c2ccc(F)cc2)cc1` [Example 19, 1-(4-Fluorophenyl)-2-(4-sulfamoylphenyl)pyrrole], in that order: 65% and 100%.
For the molecule `CCc1cc(-c2ccc(OC)cc2)n(-c2ccc(S(N)(=O)=O)cc2)c1` [Example 64, 4-Ethyl-2-(4-methoxyphenyl)-1-(4-sulfamoylphenyl) pyrrole], in series [1], the inhibition in vivo at 50 mg/kg stood at 60%.
As for `CSc1ccc(-c2cc(C)cn2-c2ccc(S(N)(=O)=O)cc2)cc1` [Example 66, 4-Methyl-2-(4-methylthiophenyl)-1-(4-sulfamoylphenyl)pyrrole], the “UD50” value in series [3] is recorded as over 100 mg/kg. The responders at 12.5 mg/kg in series [2] was 100%.
`COc1ccc(-c2cc(C)cn2-c2ccc(S(N)(=O)=O)cc2)cc1C` [Example 69, 4-Methyl-2-(4-methoxy-3-methylphenyl)-1-(4-sulfamoylphenyl)pyrrole]: the inhibition in vivo at 50 mg/kg in series [1] stood at 55%. In addition, the “UD50” value in series [3] was over 100 mg/kg. Moreover, in series [2], the responders at 12.5 mg/kg is 100%.
Regarding `Cc1cc(-c2ccc(Cl)c(Cl)c2)n(-c2ccc(S(N)(=O)=O)cc2)c1` [Example 70, 2-(3,4-Dichlorophenyl)-4-methyl-1-(4-sulfamoylphenyl)pyrrole], the “UD50” value in series [3] is over 100 mg/kg.
Turning to `COc1ccc(-c2cc(C)cn2-c2ccc(S(N)(=O)=O)cc2)cc1F` [Example 71, 2-(3-Fluoro-4-methoxylphenyl)-4-methyl-1-(4-sulfamoylphenyl)pyrrole], the “UD50” value in series [3] was over 100 mg/kg. In addition, the responders at 12.5 mg/kg in series [2] is 100%.
As for `Cc1cc(-c2ccc(S(N)(=O)=O)cc2)n(-c2ccc(F)cc2F)c1` [Example 75, 1-(2,4-Difluorophenyl)-4-methyl-2-(4-sulfamoylphenyl)pyrrole], the inhibition in vivo at 50 mg/kg in series [1] is 57%.
Regarding `COc1ccc(-c2cccn2-c2ccc(S(N)(=O)=O)cc2)cc1` [Example 76, 2-(4-Methoxyphenyl)-1-(4-sulfamoylphenyl)pyrrole], the inhibition in vivo at 50 mg/kg in series [1] was determined as 56%. Further, the “UD50” value in series [3] is recorded as over 100 mg/kg.
Turning to `Cc1cc(-c2ccccc2)n(-c2ccc(S(N)(=O)=O)cc2)c1` [Example 77, 4-Methyl-2-phenyl-1-(4-sulfamoylphenyl)pyrrole], the “UD50” value in series [3] was over 100 mg/kg.
Turning to `COc1ccc(-c2cc(C)cn2-c2ccc(S(N)(=O)=O)cc2)cc1Cl` [Example 79, 2-(3-Chloro-4-methoxyphenyl)-4-methyl-1-(4-sulfamoylphenyl)pyrrole], the “UD50” value in series [3] was over 100 mg/kg. The responders at 12.5 mg/kg in series [2] is 100%.
For `COc1ccc(-c2cc(C)cn2-c2ccc(S(=O)(=O)NC(C)=O)cc2)cc1` [Example 82, 1-(4-Acetylaminosulfonylphenyl)-2-(4-methoxyphenyl)-4-methylpyrrole], the inhibition in vivo at 50 mg/kg in series [1] was 78%. Also, the “UD50” value in series [3] is on record as over 100 mg/kg. For the same molecule, the responders at 12.5 mg/kg in series [2] is 100%.
Consider `CC(=O)NS(=O)(=O)c1ccc(-n2cc(C)cc2-c2ccc(C)c(C)c2)cc1` [Example 83, 1-(4-Acetylaminosulfonylphenyl)-2-(3,4-dimethylphenyl)-4-methylpyrrole], for which the inhibition in vivo at 50 mg/kg in series [1] came out at 70%. Besides, in series [2], the responders at 12.5 mg/kg is 100%.
As to `CCSc1ccc(-n2cc(C)cc2-c2ccc(S(N)(=O)=O)cc2)cc1` [Example 85, 1-(4-Ethylthiophenyl)-4-methyl-2-(4-sulfamoylphenyl)pyrrole], in series [1], the inhibition in vivo at 50 mg/kg was found to be 73%. Moreover, the responders at 12.5 mg/kg in series [2] was 100%.
On to `Cc1cc(-c2ccc(S(N)(=O)=O)cc2)n(-c2ccc(C)c(C)c2)c1` [Example 86, 4-Methyl-1-(3,4-dimethylphenyl)-2-(4-sulfamoylphenyl)pyrrole], for which the inhibition in vivo at 50 mg/kg in series [1] amounted to 64%. Moreover, the responders at 12.5 mg/kg in series [2] is 100%.
In the case of `Cc1cc(C)cc(-c2cc(C)cn2-c2ccc(S(N)(=O)=O)cc2)c1` [Example 87, 4-Methyl-2-(3,5-dimethylphenyl)-1-(4-sulfamoylphenyl)pyrrole], the responders at 12.5 mg/kg in series [2] was 100%.
`CSc1ccc(-c2c(C)ccn2-c2ccc(S(N)(=O)=O)cc2)cc1` [Example 88, 3-Methyl-2-(4-methylthiophenyl)-1-(4-sulfamoylphenyl)pyrrole]: the inhibition in vivo at 50 mg/kg in series [1] came to 61%. In series [2], the responders at 12.5 mg/kg is 100%.
Take `Cc1cc(-c2ccc(S(N)(=O)=O)cc2)n(-c2ccc([S+](C)[O-])cc2)c1` (centres unmarked) [Example 96, 4-Methyl-1-(4-methylsulfinylphenyl)-2-(4-sulfamoylphenyl)pyrrole]: the inhibition in vivo at 50 mg/kg in series [1] came to 60%.
Turning to `COc1ccc(-n2c(Cl)ccc2-c2ccc(S(N)(=O)=O)cc2)cc1` [Example 97, 5-Chloro-1-(4-methoxyphenyl)-2-(4-sulfamoylphenyl)pyrrole], the inhibition in vivo at 50 mg/kg in series [1] came out at 63%. The responders at 12.5 mg/kg in series [2] is 100%.
For `COc1ccc(-n2c(Br)ccc2-c2ccc(S(N)(=O)=O)cc2)cc1` [Example 98, 5-Bromo-1-(4-methoxyphenyl)-2-(4-sulfamoylphenyl)pyrrole], the inhibition in vivo at 50 mg/kg in series [1] is 55%.
`COc1ccc(-n2c(-c3ccc(S(N)(=O)=O)cc3)cc(C)c2Cl)cc1` [Example 99, 5-Chloro-1-(4-methoxyphenyl)-4-methyl-2-(4-sulfamoylphenyl)pyrrole]: in series [1], the inhibition in vivo at 50 mg/kg was found to be 57%.
Take `CCOc1ccc(-n2c(Cl)ccc2-c2ccc(S(N)(=O)=O)cc2)cc1` [Example 100, 5-Chloro-1-(4-ethoxyphenyl)-2-(4-sulfamoylphenyl) pyrrole]: in series [1], the inhibition in vivo at 50 mg/kg came to 57%. Moreover, in series [2], the responders at 12.5 mg/kg is 100%.
For `CSc1ccc(-n2c(Cl)ccc2-c2ccc(S(N)(=O)=O)cc2)cc1` [Example 101, 5-Chloro-1-(4-methylthiophenyl)-2-(4-sulfamoylphenyl)pyrrole], in series [2], the responders at 12.5 mg/kg is 100%.
Take `Cc1cc(-c2ccc(S(N)(=O)=O)cc2)n(-c2ccc(S)cc2)c1` [Example 129, 1-(4-Mercaptophenyl)-4-methyl-2-(4-sulfamoylphenyl)pyrrole]: the inhibition in vivo at 50 mg/kg in series [1] was determined as 62%. Besides, the responders at 12.5 mg/kg in series [2] is 100%.
Consider `CC(=O)Sc1ccc(-n2cc(C)cc2-c2ccc(S(N)(=O)=O)cc2)cc1` [Example 130, 1-(4-Acetylthiophenyl)-4-methyl-2-(4-sulfamoylphenyl)pyrrole], for which, in series [1], the inhibition in vivo at 50 mg/kg came out at 73%. The responders at 12.5 mg/kg in series [2] is 20%.
